Like-named read-outs stand apart in the source and are kept apart here.
Target: BTK (Homo sapiens (Human), UniProt Q06187)
Test: Btk in vitro inhibitory activity (one of Method A TR-FRET, Method B electrophoretic mobility shift, Method C radiometric filter binding)
Assay type: biochemical
[1] = determined using one of the methods of Example 355a, 355b and 355c, read-out: BTK IC50

Chain of BTK (Q06187 whole entry): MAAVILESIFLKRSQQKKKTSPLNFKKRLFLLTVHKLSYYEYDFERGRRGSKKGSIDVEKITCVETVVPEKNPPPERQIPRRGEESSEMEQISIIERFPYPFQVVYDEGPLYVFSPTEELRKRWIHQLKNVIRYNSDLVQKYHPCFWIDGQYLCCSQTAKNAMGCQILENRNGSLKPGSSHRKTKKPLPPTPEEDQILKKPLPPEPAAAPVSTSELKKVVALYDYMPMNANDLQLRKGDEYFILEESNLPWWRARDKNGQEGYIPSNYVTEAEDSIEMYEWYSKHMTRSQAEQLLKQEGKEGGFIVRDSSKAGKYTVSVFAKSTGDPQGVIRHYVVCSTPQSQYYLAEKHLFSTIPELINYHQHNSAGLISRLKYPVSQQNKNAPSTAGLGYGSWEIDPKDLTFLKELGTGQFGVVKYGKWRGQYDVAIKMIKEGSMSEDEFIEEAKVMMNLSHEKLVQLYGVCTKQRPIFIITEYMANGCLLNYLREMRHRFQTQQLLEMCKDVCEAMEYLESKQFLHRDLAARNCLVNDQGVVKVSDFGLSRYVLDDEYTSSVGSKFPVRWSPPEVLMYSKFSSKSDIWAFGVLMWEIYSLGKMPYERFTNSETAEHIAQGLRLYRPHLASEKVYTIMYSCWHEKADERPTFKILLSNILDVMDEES

Structure (SMILES)	IC50 (read-out: Btk (IC50))	IC50 [1]	IC50 (Btk (IC50))	IC50
NC(=O)c1nnc(N2CCC[C@@H](NC(=O)c3nc4ccccc4s3)C2)nc1Nc1ccc(C(=O)N2CCOCC2)cc1 [Example 94, (R)—N-(1-(6-carbamoyl-5-(4-(morpholine-4-carbonyl)phenylamino)-1,2,4-triazin-3-yl)piperidin-3-yl)benzo[d]thiazole-2-carboxamide]	< 10 nM	–	–	–
COc1ccc(C(=O)N[C@@H]2CCCN(c3cnc(C(N)=O)c(Nc4ccc(C(=O)N(C)C)cc4)n3)C2)cc1 [Example 118, (R)-3-(4-(dimethylcarbamoyl)phenylamino)-5-(3-(4-methoxybenzamido)piperidin-1-yl)pyrazine-2-carboxamide]	10 to 100 nM	10 to 100 nM	–	–
COc1ccc(C(=O)N[C@@H]2CCCN(c3cnc(C(N)=O)c(Nc4ccc(C5CCN(C(C)=O)CC5)cc4)n3)C2)cc1 [Example 139, (R)-3-(4-(1-acetylpiperidin-4-yl)phenylamino)-5-(3-(4-methoxybenzamido)piperidin-1-yl)pyrazine-2-carboxamide]	< 10 nM	< 10 nM	–	–
NC(=O)c1nnc(N2CCC[C@@H](NC(=O)c3cc(C4CC4)on3)C2)nc1Nc1ccc(C(=O)N2CCOCC2)cc1 [Example 95, (R)—N-(1-(6-carbamoyl-5-(4-(morpholine-4-carbonyl)phenylamino)-1,2,4-triazin-3-yl)piperidin-3-yl)-5-cyclopropylisoxazole-3-carboxamide]	10 to 100 nM	10 to 100 nM	–	–
NC(=O)c1ncc(N2CCC[C@@H](NC(=O)c3ccc4nccn4c3)C2)nc1Nc1ccc(C2CCOCC2)cc1 [Example 325, (R)—N-(1-(5-carbamoyl-6-(4-(tetrahydro-2H-pyran-4-yl)phenylamino)pyrazin-2-yl)piperidin-3-yl)imidazo[1,2-a]pyridine-6-carboxamide]	< 10 nM	< 10 nM	–	–
N#CCC(=O)N1CCC(c2ccc(Nc3nc(N4CCC[C@@H](NC(=O)N5CCCCC5)C4)cnc3C(N)=O)cc2)CC1 [Example 150, (R)-3-(4-(1-(2-cyanoacetyl)piperidin-4-yl)phenylamino)-5-(3-(piperidine-1-carboxamido)piperidin-1-yl)pyrazine-2-carboxamide]	< 10 nM	< 10 nM	–	–
COCCOc1ccc(Nc2nc(N3CCC[C@@H](NC(=O)N[C@H](C)c4ccccc4)C3)cnc2C(N)=O)cc1 [Example 347, 3-(4-(2-methoxyethoxy)phenylamino)-5-((R)-3-(3-((R)-1-phenylethyl)ureido)piperidin-1-yl)pyrazine-2-carboxamide]	–	10 to 100 nM	–	–
COc1ccc(C(=O)N[C@@H]2CCCN(c3cnc(C(N)=O)c(Nc4ccc(N5CCOCC5)c(F)c4)n3)C2)cc1 [Example 125, (R)-3-(3-fluoro-4-morpholinophenylamino)-5-(3-(4-methoxybenzamido)piperidin-1-yl)pyrazine-2-carboxamide]	–	< 10 nM	–	–
NC(=O)c1nnc(N2CCC[C@@H](NC(=O)C3CC3)C2)nc1Nc1ccc(C(=O)N2CCOCC2)cc1 [Example 25, (R)-3-(3-(cyclopropanecarboxamido)piperidin-1-yl)-5-(4-(morpholine-4-carbonyl)phenylamino)-1,2,4-triazine-6-carboxamide]	–	10 to 100 nM	–	–
COc1ccc(C(=O)N[C@@H]2CCCN(c3cnc(C(N)=O)c(Nc4ccc(C5CCN(C=O)CC5)cc4)n3)C2)cc1 [Example 138, (R)-3-(4-(1-formylpiperidin-4-yl)phenylamino)-5-(3-(4-methoxybenzamido)piperidin-1-yl)pyrazine-2-carboxamide]	< 10 nM	< 10 nM	–	–
C[C@@H]1CCN(c2cnc(C(N)=O)c(Nc3ccc(C4CCN(C5CCCC5)CC4)cc3)n2)C[C@@H]1NC(=O)N(C)C [Example 290, 3-(4-(1-cyclopentylpiperidin-4-yl)phenylamino)-5-((3R,4R)-3-(3,3-dimethylureido)-4-methylpiperidin-1-yl)pyrazine-2-carboxamide]	–	10 to 100 nM	–	–
CN(C)S(=O)(=O)N[C@@H]1CCCN(c2cnc(C(N)=O)c(Nc3ccc(C4CCN(C5CCCC5)CC4)cc3)n2)C1 [Example 302, (R)-3-(4-(1-cyclopentylpiperidin-4-yl)phenylamino)-5-(3-(N,N-dimethylsulfamoylamino)piperidin-1-yl)pyrazine-2-carboxamide]	–	10 to 100 nM	–	–
CN(C)C(=O)N[C@@H]1CCCN(c2nnc(C(N)=O)c(Nc3ccc(C(=O)N4CCOCC4)cc3)n2)C1 [Example 81, (R)-3-(3-(3,3-dimethylureido)piperidin-1-yl)-5-(4-(morpholine-4-carbonyl)phenylamino)-1,2,4-triazine-6-carboxamide]	–	10 to 100 nM	10 to 100 nM	–
C[C@@H]1[C@H](NC(=O)N(C)C)CCCN1c1cnc(C(N)=O)c(Nc2ccc(C3CCN(C4CC4)CC3)cc2)n1 [Example 237, 3-(4-(1-cyclopropylpiperidin-4-yl)phenylamino)-5-((2R,3R)-3-(3,3-dimethylureido)-2-methylpiperidin-1-yl)pyrazine-2-carboxamide]	–	< 10 nM	< 10 nM	–
COc1ccc(NC(=O)N[C@@H]2CCCN(c3nnc(C(N)=O)c(Nc4ccc(C(=O)N5CCOCC5)cc4)n3)C2)cc1 [Example 80, (R)-3-(3-(3-(4-methoxyphenyl)ureido)piperidin-1-yl)-5-(4-(morpholine-4-carbonyl)phenylamino)-1,2,4-triazine-6-carboxamide]	–	10 to 100 nM	10 to 100 nM	–
CN(C)C(=O)N[C@@H]1CCCN(c2cnc(C(N)=O)c(Nc3ccc(OC4CCCC4)cc3)n2)C1 [Example 189, (R)-3-(4-(cyclopentyloxy)phenylamino)-5-(3-(3,3-dimethylureido)piperidin-1-yl)pyrazine-2-carboxamide]	–	10 to 100 nM	10 to 100 nM	–
COc1cc(Nc2nc(N3CCC[C@@H](NC(=O)N(C)C)C3)cnc2C(N)=O)ccc1C [Example 183, (R)-5-(3-(3,3-dimethylureido)piperidin-1-yl)-3-(3-methoxy-4-methylphenylamino)pyrazine-2-carboxamide]	–	100 to 1000 nM	–	100 to 1000 nM
CN(C)C(=O)N[C@@H]1CCCN(c2cnc(C(N)=O)c(Nc3cnn(C4CCCC4)c3)n2)C1 [Example 217, (R)-3-(1-cyclopentyl-1H-pyrazol-4-ylamino)-5-(3-(3,3-dimethylureido)piperidin-1-yl)pyrazine-2-carboxamide]	–	10 to 100 nM	–	–
NC(=O)c1ncc(N2CCC[C@@H](NC(=O)c3ccc(Cl)cc3)C2)nc1Nc1ccc(C2CCN(C3CC3)CC2)cc1 [Example 311, (R)-5-(3-(4-chlorobenzamido)piperidin-1-yl)-3-(4-(1-cyclopropylpiperidin-4-yl)phenylamino)pyrazine-2-carboxamide]	< 10 nM	< 10 nM	–	–
COc1ccc(C(=O)N[C@@H]2CCCN(c3cnc(C(N)=O)c(Nc4ccc(N5CCOCC5)cc4)n3)C2)cc1 [Example 123, (R)-5-(3-(4-methoxybenzamido)piperidin-1-yl)-3-(4-morpholinophenylamino)pyrazine-2-carboxamide]	–	< 10 nM	–	–
NC(=O)c1ncc(N2CCCC[C@@H](NC(=O)C3CC3)C2)nc1Nc1ccc(C2CCN(C3CCCC3)CC2)cc1 [Example 328, (R)-3-(4-(1-cyclopentylpiperidin-4-yl)phenylamino)-5-(3-(cyclopropanecarboxamido)azepan-1-yl)pyrazine-2-carboxamide]	< 10 nM	< 10 nM	–	–
CN1CCN([C@@H]2CCCN(c3cnc(C(N)=O)c(Nc4ccc(C5CCN(C6CCC6)CC5)cc4)n3)C2)C1=O [Example 258]	–	< 10 nM	–	–

Reference: US9656988B2 (Pharmacyclics LLC, priority 2013, dated 2017)
